Assay results: patent US20180200293A1, “STABILIZED GOLD NANOPARTICLES” (priority 2014, published 2018)

What was measured:
[1] = Electron capture by AuNPs in water, muon spin resonance (μSR); conditions: degassed 0.1 M aqueous surfactant reference solution, absence of AuNPs
Description: To deconstruct the complex electron-transfer reactions in water, we used a highly sensitive spectroscopic technique involving the positive muon (μ+) using the muon spin resonance (μSR) technique (18). The μSR technique is a type of spin spectroscopy that makes use of short-lived subatomic particles, muons (μ^+), which are sensitive magnetic and electronic probes of matter.
A degassed 0.1 M aqueous solution of the dissolved surfactant (bac-14) was used as a reference. […] These electrons therefore combine with positive muons or MuH2O^+ ions to form paramagnetic muonium, an ultra-light hydrogen atom (0.11H) that adds to the aromatic ring of the surfactant (FIG. 15).
The diamagnetic fraction shown in the transverse field spectra (FIG. 17) is enhanced when muons enter the AuNP solution, as compared with the reference solution containing a similar surfactant concentration and evaluated under the same experimental conditions (same sample geometry and magnetic field).
In aqueous solutions, the competition of Reactions 1-5 in the radiation track determines the muon fractions (19-21). […]
where [AuNP] is the AuNP concentration calculated to be 4.89×10^-7 M (see supplementary information) and the muon thermalization rate (10) is at least 1 ns−1.
The lower limit of the electron capture rate constant (ke) for the AuNPs, using Eq. 1, was determined to be 2×10^15 M^−1 s^−1. […]

[2] = scavenger concentrations as high as 2 M; cited from earlier work

Compound | trapping of solvated or pre-solvated electrons [1] | electron capture rate (reported for known scavengers) [2] [M⁻¹ s⁻¹]
CCCCCCCCCCCCCC[N+](C)(C)Cc1ccccc1.[Cl-] [bac-14, Benzyldimethyltetradecylammonium chloride] | unable to effectively trap the solvated or pre-solvated electrons | –
C[S+](C)[O-] [DMSO] | – | 8.1e+11
O=[N+]([O-])[O-].[K+] [KNOB] | – | 1.2e+13
CC(C)O [isopropanol] | – | 2.3e+11
